The text below walks through data of ChEMBL document CHEMBL1201862, “PubChem BioAssay data set” (2004).

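48-hour exposure; five concentrations; linearly interpolated endpoints. GI50 marks 50% less growth.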 Active and inactive are the calls of the source. Rule as the data show it: active = GI50 up to about 1.1 µM and inactive = higher.

Among the test systems are COLO 205; MOLT-4; CCRF-CEM; NCI-H522; SR; SK-MEL-5; MDA-MB-435; HL-60; SNB-19; RPMI-8226; DU-145; T47D; HCT-116; UACC-257; SK-MEL-28; OVCAR-8; NCI-H226; HCT-15; IGROV-1; SNB-75.
Common to all, as to test: growth of human tumour cells (NCI), 48 h

For `COc1cc(/C=C2/SC(c3ccccc3)N(c3cccc(Cl)c3)C2=O)cc(OC)c1OC` (stereo not given), the GI50 with COLO 205 is 56.1 µM (inactive); in the assay on MOLT-4, 24.7 µM (inactive); with CCRF-CEM it was 11.3 µM (inactive); in the assay with NCI-H522, 11.5 µM (inactive); in the assay on SR, 10.8 µM (inactive); with SK-MEL-5 it was 29.5 µM (inactive). The GI50 with MDA-MB-435 is 17.6 µM (inactive); in the assay on HL-60 it was 29.8 µM (inactive); in the assay on SNB-19, 27.9 µM (inactive); in the assay on RPMI-8226 it was 16.2 µM (inactive); with DU-145, 39.1 µM (inactive); in the assay with T47D, 25.5 µM (inactive). Further, the GI50 in the assay on HCT-116 was 15.3 µM (inactive); in the assay with UACC-257, 40.1 µM (inactive); with SK-MEL-28 it was 26.2 µM (inactive); in the assay with OVCAR-8, 23.1 µM (inactive); in the assay with NCI-H226 it was 42.7 µM (inactive); with HCT-15, 20.7 µM.
On to `CCC1(O)CC(CCN(Cc2ccccc2)C(=O)OCc2ccccc2)C(OCc2ccccc2)C1O` (stereo not given), for which the GI50 with COLO 205 is 16.2 µM (inactive); with MOLT-4 it was 1.93 µM (inactive); in the assay on CCRF-CEM it was 16.1 µM (inactive); in the assay on NCI-H522, 10.1 µM (inactive); in the assay on IGROV-1, 20.4 µM (inactive); in the assay with SR, 12.2 µM (inactive). Also, the GI50 in the assay on SK-MEL-5 is 15.1 µM (inactive); with MDA-MB-435, 18.4 µM (inactive); in the assay on SNB-19 it was 15.6 µM (inactive); with DU-145, 18.5 µM (inactive); with T47D it was 12.2 µM (inactive); with HCT-116 it was 17.5 µM (inactive). Moreover, the GI50 with SNB-75 is 12.5 µM (inactive); in the assay with UACC-257, 16.1 µM (inactive); with SK-MEL-28, 15.7 µM (inactive); in the assay with OVCAR-8 it was 15.6 µM (inactive); with NCI-H226, 10.7 µM (inactive); with HCT-15 it was 13.4 µM.
Take `CCCCCCCCCCCCCCCCCCNc1ccn(C2OC(COP(=O)(O)OCC3OC(n4cc(C)c(=O)[nH]c4=O)CC3O)C(O)C2O)c(=O)n1` (stereo not given): the GI50 in the assay with COLO 205 is 14.9 µM (inactive); with MOLT-4, 10.6 µM (inactive); in the assay with CCRF-CEM, 10.4 µM (inactive); in the assay on NCI-H522, 15.8 µM (inactive); with SR, 11.9 µM (inactive); in the assay with SK-MEL-5, 14.9 µM (inactive). Further, the GI50 in the assay on MDA-MB-435 was 16.9 µM (inactive); with SNB-19, 15.4 µM (inactive); in the assay with RPMI-8226 it was 16.1 µM (inactive); in the assay with DU-145, 17.8 µM (inactive); in the assay on T47D, 17.3 µM (inactive); with HCT-116 it was 17.1 µM (inactive). Also, the GI50 is 17.5 µM (inactive) in the assay with SNB-75; 18.1 µM (inactive) in the assay with UACC-257; 17.5 µM (inactive) in the assay with SK-MEL-28; 17.8 µM (inactive) in the assay with OVCAR-8; 23.7 µM (inactive) in the assay on NCI-H226; 16.1 µM in the assay on HCT-15.
`CC1(C)CC(C2=NCCO2)CC(C)(C)N1`: the GI50 with COLO 205, in the assay on MOLT-4, in the assay on CCRF-CEM, in the assay on IGROV-1, with SR and in the assay on SK-MEL-5 was > 100 µM (inactive) throughout. The GI50 in the assay on MDA-MB-435, in the assay on HL-60, with SNB-19, in the assay on RPMI-8226, in the assay with DU-145 and in the assay with T47D was > 100 µM (inactive) in each case. The GI50 in the assay on HCT-116, in the assay on SNB-75, with UACC-257, with SK-MEL-28, in the assay on OVCAR-8 and in the assay with NCI-H226 was > 100 µM (inactive) each time. For the same compound, the GI50 in the assay on HCT-15 is above 100 µM.
As for `C1CC[C@H]2SSC3CCCC[C@H]3SSC2C1` (stereo not given in full), the GI50 in the assay with COLO 205, with MOLT-4, in the assay with CCRF-CEM, in the assay with NCI-H522, in the assay with IGROV-1 and in the assay on SR was > 100 µM (inactive) throughout. For the same compound, the GI50 in the assay on SK-MEL-5, with MDA-MB-435, with HL-60, in the assay on SNB-19, in the assay with RPMI-8226 and in the assay on DU-145 was > 100 µM (inactive) throughout. Further, the GI50 with T47D, in the assay with HCT-116, in the assay on SNB-75, in the assay with UACC-257, with SK-MEL-28 and with OVCAR-8 was > 100 µM (inactive) each time. The compound further came in with a GI50 with HCT-15 above 100 µM.
Regarding `COc1ccc(/C=N/NC(=O)c2ccc(O)c(CN(C)C)c2)cc1`, the GI50 in the assay with COLO 205 was > 100 µM (inactive); in the assay on MOLT-4, > 100 µM (inactive); in the assay on CCRF-CEM, > 100 µM (inactive); with NCI-H522, 10.5 µM (inactive); in the assay with IGROV-1, > 100 µM (inactive); with SR, > 100 µM (inactive). Also, the GI50 in the assay on SK-MEL-5 was > 100 µM (inactive); in the assay on MDA-MB-435, 47.3 µM (inactive); in the assay on HL-60 it was > 100 µM (inactive); in the assay with SNB-19, > 100 µM (inactive); in the assay on DU-145, > 100 µM (inactive); in the assay with T47D it was > 100 µM (inactive). For the same compound, the GI50 was > 100 µM (inactive) in the assay on HCT-116; > 100 µM (inactive) in the assay on UACC-257; > 100 µM (inactive) in the assay with SK-MEL-28; > 100 µM (inactive) in the assay on OVCAR-8; > 100 µM (inactive) in the assay on NCI-H226; above 100 µM in the assay on HCT-15.
Turning to `O=c1[nH]cnc2c1ncn2[C@H]1CO[C@@H](CO)[C@@H]1O`, the GI50 in the assay on COLO 205, in the assay on MOLT-4, in the assay on CCRF-CEM, in the assay on NCI-H522, with IGROV-1 and in the assay with SR was > 100 µM (inactive) throughout. Also, the GI50 in the assay on SK-MEL-5, with MDA-MB-435, in the assay on RPMI-8226, with DU-145, in the assay on T47D and in the assay with HCT-116 was > 100 µM (inactive) throughout. Besides, the GI50 with SNB-75 was > 100 µM (inactive); with UACC-257, > 100 µM (inactive); with SK-MEL-28, > 100 µM (inactive); in the assay with NCI-H226 it was > 100 µM (inactive); with HCT-15, above 100 µM.
Consider `Cc1cc(C)c2c(n1)S(=O)(=O)N(CCCN1CCN(c3cccc(C(F)(F)F)c3)CC1)C(C(=O)c1ccc(Cl)cc1)=C2O`, for which the GI50 with COLO 205 was 1.84 µM (inactive); in the assay with MOLT-4, 0.418 µM (active); in the assay with CCRF-CEM, 8.15 µM (inactive); in the assay on NCI-H522 it was 2.7 µM (inactive); in the assay on IGROV-1, 3.26 µM (inactive); in the assay with SR, 0.507 µM (active). For the same compound, the GI50 in the assay with SK-MEL-5 was 2.22 µM (inactive); in the assay with MDA-MB-435, 3.18 µM (inactive); in the assay on HL-60 it was 1.87 µM (inactive); in the assay on SNB-19, 2.2 µM (inactive); in the assay on DU-145, 4.67 µM (inactive); in the assay with T47D, 3.98 µM (inactive). For the same compound, the GI50 with HCT-116 is 2.81 µM (inactive); in the assay on SNB-75, 2.81 µM (inactive); in the assay with UACC-257, 2.31 µM (inactive); in the assay with SK-MEL-28, 5.21 µM (inactive); with OVCAR-8 it was 3.83 µM (inactive); with NCI-H226, 2.45 µM (inactive). In the assay on HCT-15, this compound showed a GI50 of 1.85 µM.
As to `C=C1C(O)CC[C@]2(C)C1C1OC(C)(C)O[C@]13CC(=O)C(C)=C([C@H]1OC(C)(C)OC12)C3(C)C` (stereo not given in full), the GI50 in the assay on COLO 205 was > 100 µM (inactive); in the assay with MOLT-4, 58.6 µM (inactive); with CCRF-CEM it was > 100 µM (inactive); in the assay with IGROV-1 it was > 100 µM (inactive); in the assay on SR it was > 100 µM (inactive); with SK-MEL-5 it was > 100 µM (inactive). Moreover, the GI50 was > 100 µM (inactive) in the assay with MDA-MB-435; > 100 µM (inactive) with HL-60; > 100 µM (inactive) with SNB-19; 96.8 µM (inactive) with RPMI-8226; > 100 µM (inactive) with DU-145; 47.9 µM (inactive) with T47D. Further, the GI50 with HCT-116, in the assay on SNB-75, in the assay on UACC-257, with SK-MEL-28, in the assay on OVCAR-8 and in the assay on NCI-H226 was > 100 µM (inactive) each time. In the assay on HCT-15, this compound returned a GI50 above 100 µM.
Regarding `Cc1ccc(S(=O)(=O)n2cc(-c3cc(C(F)(F)F)ccn3)c3cc(Br)ccc32)cc1`, the GI50 in the assay on COLO 205 is 59.2 µM (inactive); in the assay on MOLT-4 it was > 100 µM (inactive); with CCRF-CEM, > 100 µM (inactive); in the assay with SR, 54.6 µM (inactive); in the assay on SK-MEL-5, 24.3 µM (inactive); in the assay with MDA-MB-435, 46.2 µM (inactive). Besides, the GI50 in the assay on HL-60 was > 100 µM (inactive); in the assay on SNB-19 it was 16 µM (inactive); with RPMI-8226, 69.2 µM (inactive); with DU-145 it was 17.9 µM (inactive); in the assay on T47D it was 1.55 µM (inactive); in the assay on HCT-116, 14.5 µM (inactive). For the same compound, the GI50 in the assay on UACC-257 is 27 µM (inactive); with SK-MEL-28, 20.7 µM (inactive); in the assay on NCI-H226, 19 µM (inactive); in the assay with HCT-15 it was 21.9 µM.
Consider `O=S(=O)(N/C(=N\O)Nc1ccc(Cl)cc1)c1cc(S(=O)(=O)c2ccccc2)cs1`, for which the GI50 with COLO 205 is 18.7 µM (inactive); in the assay on MOLT-4, 6.87 µM (inactive); in the assay on CCRF-CEM, 11.2 µM (inactive); in the assay on NCI-H522 it was 10.6 µM (inactive); in the assay on IGROV-1 it was 17.9 µM (inactive); with SR it was 6.21 µM (inactive). In addition, the GI50 in the assay on SK-MEL-5 is 9.08 µM (inactive); in the assay with MDA-MB-435, 13.8 µM (inactive); with HL-60, 2.81 µM (inactive); with SNB-19, 17.9 µM (inactive); in the assay on RPMI-8226 it was 7.87 µM (inactive); in the assay with DU-145 it was 18 µM (inactive). Further, the GI50 in the assay with T47D was 11.6 µM (inactive); in the assay with HCT-116, 13.6 µM (inactive); in the assay on UACC-257, 15.9 µM (inactive); in the assay with SK-MEL-28, 16 µM (inactive); in the assay on OVCAR-8, 15.8 µM (inactive); in the assay on NCI-H226 it was 28.6 µM (inactive). In the assay on HCT-15, this compound showed a GI50 of 18.8 µM.
